{"source": "patent US9555058B2", "about": "“Antigen presenting cancer vaccine” (CALIFORNIA STEM CELL, INC., priority 2011, dated 2017)", "type_in_all_cases": "cell-based, human", "key": {"[1]": {"test_system": "melanoma cell lines", "assay": "Apoptosis by flow cytometry using 7-AAD and annexin-V", "details": "1000 IU/mL IFN-gamma 72 hours with pan caspase inhibitor", "protocol": "The methodology of the study was as follows. Autologous and model melanoma tumor cell lines were incubated with 1000 IU/mL of IFN-gamma for 72 hours prior to assaying for autophagy, apoptosis and MHC class II expression. Autophagy was detected by immunobloting with antibodies against LC3 II and by flow cytometry with Enzo's CytoID® Autophagy Detection Kit. Apoptosis and MHC class II induction were assayed by flow cytometry using 7-AAD and annexin-V staining and antibodies against MHC class II, respectively.\nAnalysis of tumor cell death and changes in major histocompatibility class II expression in response to IFN-gamma were conducted by use of antibodies directed against MHC class II, annexin-V and 7-amino-actinomycin D (7-AAD) and acquired on a Beckton-Dickenson FACS Calibur® flow cytometer.\nWhat was investigated was the induction of autophagy, apoptosis and MHC class II molecules after IFN-gamma treatment of melanoma tumor cells in vitro. Autologous and model melanoma tumor cell lines were incubated with 1000 IU/mL of IFN-gamma for 72 hours prior to assaying for autophagy, apoptosis and […] class II expression. Autophagy was detected by immunobloting with antibodies against LC3 II and by flow cytometry with Enzo's CytoID Autophagy Detection Kit. […]"}, "[2]": {"test_system": "SK-5-Mel cells", "assay": "Autophagy by flow cytometry (Enzo CytoID Autophagy Detection), IFN-gamma with or without z-VAD", "details": "1000 IU/mL IFN-gamma 72 hours; 20 uM z-VAD where present; vs 5% FBS/RPMI", "protocol": "FIGS. 6A and 6B reveal apoptosis and autophagy induced in response to interferon-gamma. SK-5-Mel cells were incubated with 1000 IU/mL of IFN-gamma for 72 hours after which non-adherent and adherent populations were collected and assayed for apoptosis and autophagy by flow cytometry using […] and Annexin-V (FIG. 6A). Enzo Cyto-ID Autophagy Detection Dye was used to measure autophagy by flow cytometry by measuring the mean intensity peak shift of dye provided by the manufacturer (FIG. 6B). Fold changes in the peak shift in comparison to 5% FBS/RPMI are shown in FIG. 6C with serum-free as positive control for the induction of autophagy.\nSK-5-Mel cells were treated with 1000 IU/mL of IFN-gamma in the presence of 20 uM of the pan-caspase inhibitor z-VAD or its control compound, z-FA for 72 hours. The cells were harvested and assayed for autophagy by flow cytometry as in FIG. 6C.\nThe methodology of the study was as follows. […] Autophagy was detected by immunobloting with antibodies against LC3 II and by flow cytometry with Enzo's CytoID® Autophagy Detection Kit. […]\nWhat was investigated was the induction of autophagy, apoptosis and MHC class II molecules after IFN-gamma treatment of melanoma tumor cells in vitro. […] Autophagy was detected by immunobloting with antibodies against LC3 II and by flow cytometry with Enzo's CytoID Autophagy Detection Kit. […]"}, "[3]": {"test_system": "melanoma cell lines", "assay": "Immunohistochemistry of a panel of melanoma associated antigens with or without IFN-gamma", "details": "1000 IU/mL IFN-gamma 72 hours, N=27 samples", "protocol": "Expression of a panel antigens by melanoma lines were determined using immunocytochemical procedure. Cells were cultured in 8-chamber culture slides (Thermo Fisher, Rochester, N.Y.) in the presence or absence of 1000 IU/mL IFN-gamma. After 72 hours, the cells were washed 3 times with 1× Phosphate Buffered Saline (PBS) and fixed in cold acetone. After blocking endogenous peroxidase, cells were incubated with appropriate primary antibodies against the antigens listed. Immunohistochemistry was performed using biotinylated anitmouse or rabbit immunoglobulins, Super Sensitive enzyme-conjugated streptavidin labeling and horse radish peroxidase chromogen, and substrate kits (Biogenex, San Ramon, Calif.). The reactivity of the following anti-human polyclonal or monoclonal antibodies was investigated with isotype matched control antibody: S-100 and HMB-45 (Biogenex, San Ramon, Calif.), Mel-2, Mel-5, Mart-1 (Signet, Dedham, Mass.), Tyrosinase and Mage-1 (Thermo Scientific, Fremont, Calif.), Melan-A, HLA-class I and HLA-class II (Dako, Denmark).\nLysates from cells that were incubated in the presence or absence of IFN-gamma were subjected to immunoblotting for a variety of molecules that may be important mediators of immunity (FIG. 1B). In the setting of melanoma cells treated with IFN-gamma, heat shock proteins appear to be differentially regulated but remain largely present in the cell preparations, especially in the case of hsp-70."}, "[4]": {"test_system": "autologous melanoma tumor cells", "assay": "Trypan-blue dye exclusion viability after IFN-gamma", "details": "IFN-gamma 72 hours in complete medium; N=47; p=0.014 vs 89.1±6.8% not treated", "protocol": "Pure tumor cells were generated according to Cornforth, et al. (Cornforth, et al. (2011) Cancer Immunol. Immunother. 60:123-131; Dillman, et al. (1993) J. Immunother. Emphasis Tumor Immunol. 14:65-69; Dillman, et al. (2000) Cancer Biother. Radiopharm. 15:161-168). The tumor cells were then incubated with 1,000 U/mL of interferon-gamma (InterMune, Brisbane, Calif.) for 72 h, irradiated with 100Gy from a cesium source and cryopreserved (Selvan, et al. (2007) Int. J. Cancer 122:1374-1383; Selvan, et al. (2010) Melanoma Res. 20:280-292). The IFN-gamma treated and irradiated tumor cells were recovered from cryopreservation, washed with phosphate buffered saline (PBS), and then added to the cultivated dendritic cells (DCs) and then incubated for about 24 h. The antigen-loaded DCs were harvested by gentle scraping with a rubber policeman and cryopreserved. Aliquots of IFN-gamma treated or untreated tumor cells and loaded DCs were obtained for flow cytometry evaluation and trypan-blue exclusion assay. […]"}, "[5]": {"test_system": "autologous melanoma cell lines", "assay": "Immunoblotting of lysates of melanoma cells incubated with or without IFN-gamma", "details": "1000 IU/mL IFN-gamma 72 hours; four autologous melanoma cell lines", "protocol": "(§1) FIGS. 2A-D show characterization of IFN-gamma treated autologous tumor cells used for loading dendritic cells. Autologous melanoma tumor cells were treated with or without 1000 IU/mL IFN-gamma for 72 hours in 15% FBS/ECS in RPMI, harvested and irradiated with 100Gy and cryopreserved. Cells were then thawed in AIMV and a sample taken for flow cytometry and for preparation of cell lysates for immunoblotting prior to antigen loading of DCs. An example of four separate autologous melanoma cell lines is shown (FIG. 2A, FIG. 2B and FIG. 2C). Induction major histocompatibility complexes by IFN-gamma treatment of autologous tumor cells (FIG. 2D). Tumor cells were harvested after being treated with or without 1000 IU/mL IFN-gamma for 72 hours and then assayed for MHC class I and class II. Control isotype antibodies were used to identify positive populations. Dark data points indicate median mean fluorescent plus/minus 95% confidence interval. N=65. After irradiation, melanoma cells are checked by assays to ensure that there is not any mitosis.\nCytoplasmic cell lysates were prepared with Mammalian Protein Extraction Reagent (Thermo Scientific, Rockford, Ill.) plus protease inhibitor cocktail (Roche, Indianapolis, Ind.) at 10,000 cells/uL on ice. Approximately 25 uLs/lane of cell lysates were separated on 12.5% tris-glycine gels, transferred to PVDF membrane and probed with antibodies against the following: calreticulin (MBL, Woburn, Mass.), Hsp-60, Hsp-70, Hsp-90 (R&D Systems, Minneapolis, Minn.), HMBG-1 (Cell Signaling, Danvers, Mass.), ICAM-1 (Santa Cruz Biotech, Santa Cruz, Calif.), Mel-4, Mart-1 (Signet, Emeryville, Calif.), tyrosinase (Upstate, Lake Placid, N.Y.) and GADPH (Calbiochem, Darmstadt, Germany).\nLysates from cells that were incubated in the presence or absence of IFN-gamma were subjected to immunoblotting for a variety of molecules that may be important mediators of immunity (FIG. 1B). […]"}, "[6]": {"test_system": "MHC class II", "assay": "Flow cytometry of MHC class II induction by IFN-gamma in autologous tumor cells", "details": "1000 IU/mL IFN-gamma 72 hours", "protocol": "as §1\nPhenotypic characterization of the dendritic cell populations were performed using monoclonal antibodies against surface markers obtained from BD Pharmingen San Diego, Calif.: anti-MHC class II conjugated to PerCp, anti CD11c conjugated to APC, anti-CD80, anti-CD83, anti-CD86 conjugated to PE. Isotype controls were used to determine percent positive cells. […]"}}}
{"substance": "carbobenzoxy-valyl-alanyl-aspartyl-[O-methyl]-fluoromethylketone [Z-VAD]", "values": [{"measurement": "apoptosis in IFN-gamma treated cells", "setting": "[1]", "value": "prevents apoptosis"}]}
{"substance": "interferon-gamma [IFN-gamma, interferon-gamma (InterMune, Brisbane, Calif.), type II interferon, used at 1000 IU/mL for 72 hours on melanoma cells]", "values": [{"measurement": "autophagy, fold change of peak shift", "setting": "[2]", "value": "2.75±0.15", "unit": "fold change"}, {"measurement": "Change after IFN-gamma treatment: Down", "setting": "[3]; antigen MAGE-1", "value": 61.5, "unit": "%"}, {"measurement": "Change after IFN-gamma treatment: None", "setting": "[3]; antigen Mel-2", "value": 46.2, "unit": "%"}, {"measurement": "Change after IFN-gamma treatment: Down", "setting": "[3]; antigen Tyrosinase", "value": 60.0, "unit": "%"}, {"measurement": "Change after IFN-gamma treatment: None", "setting": "[3]; antigen Tyrosinase", "value": 40.0, "unit": "%"}, {"measurement": "viability (trypan-blue dye exclusion)", "setting": "[4]", "value": "84.9±9.3", "unit": "%"}, {"measurement": "ICAM-1 expression (immunoblot)", "setting": "[5]", "value": "significantly up-regulated"}, {"measurement": "calreticulin and HMGB-1 expression (immunoblot)", "setting": "[5]", "value": "up-regulated in some cases"}, {"measurement": "common melanoma antigens (mel-4, Mart-1 and tyrosinase) expression (immunoblot)", "setting": "[5]", "value": "down regulated"}, {"measurement": "cases with MHC class II induction greater than two fold", "setting": "[6]", "value": 70, "unit": "%"}]}
